The compounds below were run against T1, plasma kallikrein (PKa) (Homo sapiens, UniProt P03952) (assay: Inhibitory activity against plasma kallikrein in vitro (fluorescence intensity enzyme assay, Pro-Phe-Arg-AMC substrate)). Conditions: PKa IC50, plasma kallikrein enzyme assay, Pro-Phe-Arg-AMC substrate.
T1 construct: purchased R & D 2497-SE
Assay type: biochemical
Method: Test of the inhibitory activities of the compounds of the present invention against plasma kallikrein (PKa), KLK1 and FXIa in vitro.
The final concentrations of enzyme protein and Pro-Phe-Arg-AMC in the reaction mixture were 10 nM and 60 µM, respectively. The starting concentration of the positive reference substance Avoralstat was 100 nM, 3-fold dilution, 10 + 0 dose. 0.05 µL of compound in 100% DMSO was delivered to a 384-well plate by an acoustic liquid delivery technique (Echo665; nanoliter range). Compound duplex test. […] IC50 values and nonlinear regression curve fitting were obtained using GraphPad Prism software.

T1 sequence (P03952 391-638 limits assumed): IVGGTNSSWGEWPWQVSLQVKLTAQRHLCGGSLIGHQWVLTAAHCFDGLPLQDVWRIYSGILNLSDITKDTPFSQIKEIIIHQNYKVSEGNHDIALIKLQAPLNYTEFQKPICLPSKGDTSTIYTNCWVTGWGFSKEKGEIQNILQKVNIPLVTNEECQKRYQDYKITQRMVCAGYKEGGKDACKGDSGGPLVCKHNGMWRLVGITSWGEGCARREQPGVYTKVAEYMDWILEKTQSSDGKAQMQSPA
T1 sequence (P03952 20-390 partner limits assumed): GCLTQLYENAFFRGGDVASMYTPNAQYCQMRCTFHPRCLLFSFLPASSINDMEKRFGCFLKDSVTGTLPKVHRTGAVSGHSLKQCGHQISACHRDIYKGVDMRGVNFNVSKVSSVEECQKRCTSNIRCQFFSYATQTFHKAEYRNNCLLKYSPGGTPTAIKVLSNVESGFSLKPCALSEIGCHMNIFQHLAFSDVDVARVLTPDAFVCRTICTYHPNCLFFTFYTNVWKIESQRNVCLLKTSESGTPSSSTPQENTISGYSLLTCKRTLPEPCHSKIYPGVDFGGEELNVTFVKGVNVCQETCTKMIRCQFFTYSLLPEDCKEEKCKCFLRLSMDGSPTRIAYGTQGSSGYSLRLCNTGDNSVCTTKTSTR

IC50 [µM]	SMILES
0.669	O=C(NCc1ncc2c(n1)CNC2)c1cn(Cc2ccc(Cn3ccccc3=O)cc2)nc1C(F)(F)F [Compound 156]

Same assay, conditions: plasma kallikrein enzyme assay, Pro-Phe-Arg-AMC substrate; read-out: PKa IC50

IC50 [µM]	SMILES
0.329	COCc1nn(Cc2ccc(Oc3ccccc3)cc2)cc1C(=O)NCc1ccc2nccn2c1 [Compound 125]
0.056	N=C(N)c1ccc(CNC(=O)c2cn(Cc3ccc(CC4CC4)cc3)nc2C(F)(F)F)c(F)c1 [Compound 275]
0.594	COCc1nn(Cc2ccc(Cn3ccccc3=O)cc2)cc1C(=O)NCc1nc2c(s1)CNCC2 [Compound 152]
0.347	Cc1[nH]c(C(=O)NCc2cc3cnccc3[nH]2)c(C)c1Cc1ccc(Cn2ccccc2=O)cc1 [Compound 148]
0.00298	COCc1nn(Cc2cn3cc(C4CC4)ccc3n2)cc1C(=O)NCc1c(C)cc(N)nc1C [Compound 21]
> 1	COCc1nn(Cc2ccc(-n3ccccc3=O)cc2)cc1C(=O)NCc1cn2c(n1)CNCC2 [Compound 145]
0.0105	COc1ccc(F)c(CNC(=O)c2cn(Cc3ccc(Cn4cc(F)ccc4=O)cc3)nc2COCC2(C)COC2)c1F [Compound 285]
0.00447	N=C(N)c1ccc(CNC(=O)c2cn(Cc3ccc(Oc4ccccc4)cc3)nc2C(F)(F)F)cc1 [Compound 134]
0.0115	COc1ccnc(CNC(=O)c2cn(Cc3ccc(Cn4ccccc4=O)cc3)nc2CN2CC(C)(C)CC2=O)c1F [Compound 174]
0.192	CCc1cc(N2CC3C(C2)C3(F)F)ccc1Cn1cc(C(=O)NCc2cc3cnccc3[nH]2)c(COC)n1 (stereo not drawn) [Compound 195]
0.0362	COCc1nn(Cc2ccc(Cn3ccccc3=O)cc2)cc1C(=O)NCc1[nH]c2cnccc2c1Cl [Compound 136]
0.245	COCc1nn(Cc2ccc(Cn3ccc4ncccc43)cc2)cc1C(=O)NCc1nccc(OC)c1F [Compound 98]
0.00715	COc1ccnc(CNC(=O)c2cn(Cc3ccc(Cn4ccccc4=O)cc3)nc2N2CC(C)(OC)C2)c1F [Compound 232]
> 0.1	Nc1cc2c(cn1)C(NC(=O)c1ncn(Cc3c(F)c(F)c(Cn4ccccc4=O)c(F)c3F)n1)CC2 (stereo not drawn) [Compound 51]
> 0.1	COCc1nn(Cc2ccc(-n3ccccc3=O)cc2)cc1C(=O)NC1CCc2c1ncn2C (stereo not drawn) [Compound 96]
0.0845	COCc1nn(Cc2ccc(Oc3ccccc3)cc2)cc1C(=O)NCc1cc2ccncc2[nH]1 [Compound 185]
> 1	COCc1nn(Cc2ccc(CN3C(=O)C4(CC4)c4ccc(F)cc43)cc2)cc1C(=O)NCc1nccc(OC)c1F [Compound 138]
0.09	O=C(NCc1nccc(-n2nccn2)c1F)c1cn(Cc2ccc(Cn3ccccc3=O)cc2)nc1C1COC1 [Compound 352]
0.124	O=C(NCc1cc2cnccc2[nH]1)c1nc(Cc2ccc(Cn3ccccc3=O)cc2)ns1 [Compound 122]
> 0.1	N#Cc1cc(N2CC3C(C2)C3(F)F)ccc1Cn1cnc(C(=O)NC2CCc3cc(N)ncc32)n1 (single isomer, unassigned) [Compound 53]
0.012	COCC1(F)CN(Cc2nn(Cc3ccc(Cn4cc(F)ccc4=O)cc3)cc2C(=O)NCc2c(F)ccc(OC)c2F)C1 [Compound 220]
> 0.1	COCc1nn(Cc2ccc(CN3CC(F)(F)C3)cc2)cc1C(=O)NCc1nccc(OC)c1F [Compound 103]
0.0163	COc1ccnc(CNC(=O)c2cn(Cc3ccc(Cn4ccccc4=O)cc3)nc2COC2CCOCC2)c1F [Compound 295]

IC50 [µM]	SMILES
0.00564	O=C(NCc1nccc(N2CCC2)c1F)c1cn(Cc2ccc(Cn3ccccc3=O)cc2)nc1C1COC1 [Compound 346]
0.0166	COc1ccc(F)c(CNC(=O)c2cn(Cc3ccc(Cn4cc(F)ccc4=O)cc3)nc2COC2(C)COC2)c1F [Compound 236]
0.0112	COc1ccnc(CNC(=O)c2cn(Cc3ccc(Cn4ccccc4=O)cc3)nc2COCC(C)(C)OC)c1F [Compound 299]
0.00789	COc1ccnc(CNC(=O)c2cn(Cc3ccc(Cn4ccccc4=O)cc3)nc2COC2COC2)c1F [Compound 249]
> 1	COc1ccc(C#N)c(CNC(=O)c2cn(Cc3ccc(Cn4ccccc4=O)cc3)nc2C(F)(F)F)c1C [Compound 202]
> 1	Nc1nnc(CNC(=O)c2cnn(Cc3ccc(Cn4ccccc4=O)cc3)c2)s1 [Compound 30]
> 1	O=C(NCc1nccc(N2CCCC2)c1F)c1cn(Cc2ccc(CC3CC3)cc2)nc1C1COC1 [Compound 333]
0.0059	COc1ccc(F)c(CNC(=O)c2cn(Cc3ccc(Cn4ccccc4=O)cc3)nc2N2CC(C)(OC)C2)c1F [Compound 291]
0.0362	Cc1cc(N)nc(C)c1CNC(=O)c1nnc(Cc2cn3cc(C4CC4)ccc3n2)o1 [Compound 17]
0.00774	N#Cc1cc(N2CC3C(C2)C3(F)F)ccc1Cn1cc(C(=O)NCc2cc3ccncc3[nH]2)c(C(F)(F)F)n1 (stereo not drawn) [Compound 178]
0.544	COc1ccnc(CNC(=O)c2[nH]cc(Cc3ccc(Cn4ccccc4=O)cc3)c2C)c1F [Compound 151]
> 1	COCc1nn(Cc2ccc(N3CCCCC3=O)cc2C#N)cc1C(=O)NCc1nccc(OC)c1F [Compound 182]
0.0108	COc1ccnc(CNC(=O)c2cn(Cc3ccc(Cn4ccccc4=O)cc3)nc2CN2CCC(OC)CC2)c1F [Compound 201]
0.00695	CCN(CC)CCOCc1nn(Cc2ccc(Cn3ccccc3=O)cc2)cc1C(=O)NCc1nccc(OC)c1F [Compound 239]
> 0.1	Cc1cc(Cl)nc(C)c1CNC(=O)c1ncn(Cc2ccc(Cn3ccccc3=O)cc2)n1 [Compound 100]
> 1	COCc1nn(Cc2ccc(Cn3ccccc3=O)cc2)cc1C(=O)NCc1c(C#N)ccc(OC)c1C [Compound 190]
> 1	O=C(NCc1nccc(NC2COC2)c1F)c1cn(Cc2ccc(Cn3ccccc3=O)cc2)nc1C1COC1 [Compound 331]
0.042	O=C(NCc1nccc(C2CC2)c1F)c1cn(Cc2ccc(Cn3ccccc3=O)cc2)nc1N1CC(F)(F)C1 [Compound 272]
0.078	COCc1nn(Cc2ccc(Cn3c(=O)sc4ccccc43)cc2)cc1C(=O)NCc1nccc(OC)c1F [Compound 140]
0.00457	COc1ccnc(CNC(=O)c2cn(Cc3ccc(Cn4ccccc4=O)cc3)nc2N2CC(OC(C)C)C2)c1F [Compound 307]
0.063	COc1ccc(F)c(CNC(=O)c2cn(Cc3ccc(Cn4ccccc4=O)cc3)nc2C2(OC)CCC2)c1F [Compound 258]
0.0124	COc1ccnc(CNC(=O)c2cn(Cc3ccc(Cn4ccccc4=O)cc3)nc2CN2C(=O)CC(C)(C)CC2=O)c1F [Compound 305]
0.503	COCc1nn(Cc2ccc(-n3ccccc3=O)cc2)cc1C(=O)NCc1cc2ccncc2[nH]1 [Compound 97]

IC50 [µM]	SMILES
> 0.1	Nc1cc2c(cn1)[C@H](NC(=O)c1ncn(Cc3cn4cc(C5CC5)ccc4n3)n1)CC2 [Compound 45]
0.0118	COc1ccnc(CNC(=O)c2cn(Cc3ccc(Cn4ccccc4=O)cc3)nc2C2CN(C(=O)C(C)C)C2)c1F [Compound 173]
0.0174	Cn1cnc2c1CC[C@H]2NC(=O)c1nn(Cc2ccc(Cn3ccccc3=O)cc2)cc1C(F)F [Compound 58]
> 0.1	COCc1nn(Cc2ccc(-n3ccccc3=O)cc2)cc1C(=O)NCc1nc2c(s1)CNCC2 [Compound 107]
0.00309	COc1ccnc(CNC(=O)c2cn(Cc3ccc(Cn4ccccc4=O)cc3)nc2C(F)(F)F)c1F [Compound 90]
> 0.1	O=C(NCc1cc2cnccc2[nH]1)c1cn(Cc2ccc(Oc3ccccc3)cc2)nc1C(F)(F)F [Compound 115]
> 1	COc1ccnc(CNC(=O)c2cn(Cc3ccc(Cn4c(C(F)(F)F)nccc4=O)cc3)nc2C(F)(F)F)c1F [Compound 198]
0.00341	COc1ccnc(COC(=O)c2cn(Cc3ccc(Cn4cc(F)ccc4=O)cc3)nc2NC2(C)COC2)c1F [Compound 284]
> 1	COc1ccnc(CNC(=O)c2cn(Cc3ccc(CN4CC(F)(F)C4)cc3)nc2C(F)(F)F)c1F [Compound 124]
0.0098	COc1ccc(F)c(CNC(=O)c2cn(Cc3ccc(Cn4ccccc4=O)cc3)nc2COCCN2CCCC2)c1F [Compound 230]
0.015	COc1ccc(F)c(CNC(=O)c2cn(Cc3ccc(Cn4cc(F)ccc4=O)cc3)nc2[C@H](C)C2COC2)c1F [Compound 179]
0.0108	COc1ccnc(CNC(=O)c2cn(Cc3ccc(Cn4cc(F)ccc4=O)cc3)nc2COCC2(C)COC2)c1F [Compound 286]
0.113	CC[C@@H](COC)OCc1nn(Cc2ccc(Cn3ccccc3=O)cc2)cc1C(=O)NCc1nccc(OC)c1F [Compound 172]
0.0266	Nc1cc2c(cn1)[C@@H](NC(=O)c1ncn(Cc3ccc(Cn4ccccc4=O)cc3)n1)CO2 [Compound 82]
0.0175	O=C(NCc1cc2ccncc2[nH]1)c1nc(Cc2ccc(Cn3ccccc3=O)cc2)ns1 [Compound 177]
0.0629	COCc1nn(Cc2ccc(CN3CCCCC3=O)cc2)cc1C(=O)NCc1nccc(OC)c1F [Compound 77]
> 0.1	COCc1nn(Cc2ccc(N3CCOCC3=O)cc2)cc1C(=O)NCc1nccc(OC)c1F [Compound 89]
0.855	CNC(=N)c1ccc(CNC(=O)c2cnn(Cc3ccc(CC4CC4)cc3)c2)cc1 [Compound 271]
0.0115	COc1ccnc(CNC(=O)c2cn(Cc3ccc(Cn4ccccc4=O)cc3)nc2N2CC3(COC3)C2)c1F [Compound 288]
0.00283	COc1ccnc(CNC(=O)c2cn(Cc3ccc(Cn4ccccc4=O)cc3)nc2NC2(C)COC2)c1F [Compound 297]
0.00497	COc1ccc(F)c(CNC(=O)c2cn(Cc3ccc(Cn4cc(F)ccc4=O)cc3)nc2COCC2(F)COC2)c1F [Compound 234]
0.00566	Cc1cn2cncc2c(C)c1CNC(=O)c1cn(Cc2ccc(N3CC4C(C3)C4(F)F)cc2C#N)nc1C(F)(F)F (stereo not drawn) [Compound 200]
